Assay results reported in patent publication US20210122730A1, “GLUCOCORTICOID RECEPTOR MODULATORS” (ORIC Pharmaceuticals, Inc., priority 2017, published 2021).

Experiments:
GR = molecular target: T1, GR (Homo sapiens, UniProt P04150); experiment: In Vitro GR Luciferase Reporter Assay (antagonist mode, CHO-K1-GR-MMTV-Luc reporter cells); type: cell-based; details: antagonist mode, 10 nM Dexamethasone
T1 construct: expressed in transfected cells; host or cells: CHO-K1
T1 sequence (P04150 1-777): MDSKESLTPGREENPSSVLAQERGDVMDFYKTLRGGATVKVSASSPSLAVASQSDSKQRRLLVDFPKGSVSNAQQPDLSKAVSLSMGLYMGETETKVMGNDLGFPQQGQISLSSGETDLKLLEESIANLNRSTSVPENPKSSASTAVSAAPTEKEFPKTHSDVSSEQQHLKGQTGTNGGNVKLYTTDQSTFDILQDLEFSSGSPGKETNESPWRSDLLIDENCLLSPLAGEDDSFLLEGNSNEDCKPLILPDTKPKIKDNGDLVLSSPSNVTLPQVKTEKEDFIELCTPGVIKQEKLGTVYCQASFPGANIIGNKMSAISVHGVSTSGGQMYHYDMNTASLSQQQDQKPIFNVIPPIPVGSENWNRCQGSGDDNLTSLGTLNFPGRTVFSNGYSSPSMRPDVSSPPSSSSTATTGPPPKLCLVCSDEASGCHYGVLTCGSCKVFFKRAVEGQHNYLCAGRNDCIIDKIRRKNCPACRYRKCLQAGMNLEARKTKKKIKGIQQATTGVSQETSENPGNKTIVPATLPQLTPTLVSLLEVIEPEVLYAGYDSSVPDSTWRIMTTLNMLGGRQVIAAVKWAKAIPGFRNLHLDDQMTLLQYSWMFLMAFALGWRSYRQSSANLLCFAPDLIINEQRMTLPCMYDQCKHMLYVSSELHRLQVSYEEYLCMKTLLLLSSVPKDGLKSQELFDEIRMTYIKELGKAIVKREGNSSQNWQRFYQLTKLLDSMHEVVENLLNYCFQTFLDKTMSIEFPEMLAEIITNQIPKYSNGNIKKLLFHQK
Outline: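 CHO-K1-GR-MMTV-Luc cells in phenol red-free DMEM with 10% CSS, stimulated with 10 nM dexamethasone (final) and treated with 8-point 1:5 compound dilutions for about 18-24 h at 37° C. Luciferase measured by OneGlo luminescence; IC50 derived for inhibition of GR activity.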

CYP2C8 = molecular target: T2, CYP2C8 (Homo sapiens, UniProt P10632); experiment: CYP Inhibition Assay (CYP2C8, human liver microsomes, paclitaxel substrate); type: in vitro ADME; details: pH 7.4; pooled human liver microsomes 0.1 mg/mL, probe substrate paclitaxel
T2 construct: Pooled human microsomes were obtained from Sekisui XenoTech, KS; tissue Sekisui XenoTech, KS; host or cells: pooled human liver microsomes
T2 sequence (P10632 1-490): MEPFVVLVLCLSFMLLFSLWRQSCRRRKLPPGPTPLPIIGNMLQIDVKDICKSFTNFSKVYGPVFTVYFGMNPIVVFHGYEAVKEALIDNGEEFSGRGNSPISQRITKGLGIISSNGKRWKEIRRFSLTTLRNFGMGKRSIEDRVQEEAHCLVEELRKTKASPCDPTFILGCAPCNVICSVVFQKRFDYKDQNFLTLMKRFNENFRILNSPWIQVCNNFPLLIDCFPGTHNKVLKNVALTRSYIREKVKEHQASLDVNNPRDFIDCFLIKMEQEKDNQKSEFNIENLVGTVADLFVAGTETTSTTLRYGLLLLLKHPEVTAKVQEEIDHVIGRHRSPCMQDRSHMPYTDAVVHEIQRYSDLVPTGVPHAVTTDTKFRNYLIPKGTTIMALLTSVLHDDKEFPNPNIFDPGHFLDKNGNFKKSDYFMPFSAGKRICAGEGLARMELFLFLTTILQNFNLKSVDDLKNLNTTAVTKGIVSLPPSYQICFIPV
Outline: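 Pooled human liver microsomes (0.1 mg/mL) in 50 mM potassium phosphate pH 7.4 with compound, started with 1 mM NADPH, 5 min at 37° C, duplicate.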

IC50 (GR) [nM] | inhibition at 5 min (CYP2C8) [%] | SMILES
≤ 100 | 50 to 75 | Cn1cc(S(=O)(=O)N(CC(F)(F)F)[C@H]2CCC3=Cc4c(cnn4-c4ccc(F)cc4)C[C@]3(C(=O)c3ncc(C(F)(F)F)s3)C2)cn1 [Example 250, N-((4aS,6S)-1-(4-fluorophenyl)-4a-(5-(trifluoromethyl)thiazole-2-carbonyl)-4,4a,5,6,7,8-hexahydro-1H-benzo[f]indazol-6-yl)-1-methyl-N-(2,2,2-trifluoroethyl)-1H-pyrazole-4-sulfonamide]
≤ 100 | 50 to 75 | Cn1ccc(S(=O)(=O)N(CC2(O)CC2)[C@H]2CCC3=Cc4c(cnn4-c4ccc(F)cc4)C[C@]3(C(=O)c3ncc(C(F)(F)F)s3)C2)n1 [Example 251, N-((4aS,6S)-1-(4-fluorophenyl)-4a-(5-(trifluoromethyl)thiazole-2-carbonyl)-4,4a,5,6,7,8-hexahydro-1H-benzo[f]indazol-6-yl)-N-((1-hydroxycyclopropyl)methyl)-1-methyl-1H-pyrazole-3-sulfonamide]
≤ 100 | 50 to 75 | O=C(c1cc(F)ccn1)[C@]12Cc3cnn(-c4ccc(F)cc4)c3C=C1CC[C@H](N(CC1(O)CC1)S(=O)(=O)c1ccc(F)cc1)C2 [Example 254, 4-fluoro-N-((4aS,6S)-1-(4-fluorophenyl)-4a-(4-fluoropicolinoyl)-4,4a,5,6,7,8-hexahydro-1H-benzo[f]indazol-6-yl)-N-((1-hydroxycyclopropyl)methyl) benzenesulfonamide]
≤ 100 | 50 to 75 | Cn1ccc(S(=O)(=O)N(CC2(O)CC2)[C@H]2CCC3=Cc4c(cnn4-c4ccc(F)cc4)C[C@]3(C(=O)c3cc(F)ccn3)C2)n1 [Example 255, N-((4aS,6S)-1-(4-fluorophenyl)-4a-(4-fluoropicolinoyl)-4,4a,5,6,7,8-hexahydro-1H-benzo[f]indazol-6-yl)-N-((1-hydroxycyclopropyl)methyl)-1-methyl-1H-pyrazole-3-sulfonamide]
≤ 100 | 50 to 75 | Cn1ccc(S(=O)(=O)N(CC2(O)CC2)[C@H]2CCC3=Cc4c(cnn4-c4ccc(F)cc4)C[C@]3(C(=O)c3cc(Cl)ccn3)C2)n1 [Example 257, N-((4aS,6S)-4a-(4-chloropicolinoyl)-1-(4-fluorophenyl)-4,4a,5,6,7,8-hexahydro-1H-benzo[f]indazol-6-yl)-N-((1-hydroxycyclopropyl)methyl)-1-methyl-1H-pyrazole-3-sulfonamide]
≤ 100 | 50 to 75 | Cn1ccc(S(=O)(=O)N(C2CC2)[C@H]2CCC3=Cc4c(cnn4-c4ccc(F)cc4)C[C@]3(C(=O)c3cc(C(F)F)ccn3)C2)n1 [Example 258, N-cyclopropyl-N-((4aS,6S)-4a-(4-(difluoromethyl)picolinoyl)-1-(4-fluorophenyl)-4,4a,5,6,7,8-hexahydro-1H-benzo[f]indazol-6-yl)-1-methyl-1H-pyrazole-3-sulfonamide]
≤ 100 | 25 to 50 | Cn1ccc(S(=O)(=O)N(C2CC2)[C@H]2CCC3=Cc4c(cnn4-c4ccc(F)cc4)C[C@]3(C(=O)c3ncc(Cl)cn3)C2)n1 [Example 259, N-((4aS,6S)-4a-(5-chloropyrimidine-2-carbonyl)-1-(4-fluorophenyl)-4,4a,5,6,7,8-hexahydro-1H-benzo[f]indazol-6-yl)-N-cyclopropyl-1-methyl-1H-pyrazole-3-sulfonamide]
≤ 100 | 50 to 75 | Cn1cc(S(=O)(=O)N(CC(F)(F)F)[C@H]2CCC3=Cc4c(cnn4-c4ccc(F)cc4)C[C@]3(C(=O)c3cc(F)ccn3)C2)cn1 [Example 260, N-((4aS,6S)-1-(4-fluorophenyl)-4a-(4-fluoropicolinoyl)-4,4a,5,6,7,8-hexahydro-1H-benzo[f]indazol-6-yl)-1-methyl-N-(2,2,2-trifluoroethyl)-1H-pyrazole-4-sulfonamide]
≤ 100 | 50 to 75 | Cn1ccnc1S(=O)(=O)N(C1CC1)[C@H]1CCC2=Cc3c(cnn3-c3ccc(F)cc3)C[C@]2(C(=O)c2cc(C(F)(F)F)ccn2)C1 [Example 261, N-cyclopropyl-N-((4aS,6S)-1-(4-fluorophenyl)-4a-(4-(trifluoromethyl)picolinoyl)-4,4a,5,6,7,8-hexahydro-1H-benzo[f]indazol-6-yl)-1-methyl-1H-imidazole-2-sulfonamide]
≤ 100 | 50 to 75 | Cn1ncc(S(=O)(=O)N(C2CC2)[C@H]2CCC3=Cc4c(cnn4-c4ccc(F)cc4)C[C@]3(C(=O)c3cc(Cl)ccn3)C2)n1 [Example 262, N-((4aS,6S)-4a-(4-chloropicolinoyl)-1-(4-fluorophenyl)-4,4a,5,6,7,8-hexahydro-1H-benzo[f]indazol-6-yl)-N-cyclopropyl-2-methyl-2H-1,2,3-triazole-4-sulfonamide]
≤ 100 | 75 to 90 | Cn1ncc(S(=O)(=O)N(C2CC2)[C@H]2CCC3=Cc4c(cnn4-c4ccc(F)cc4)C[C@]3(C(=O)c3cc(F)ccn3)C2)n1 [Example 263, N-cyclopropyl-N-((4aS,6S)-1-(4-fluorophenyl)-4a-(4-fluoropicolinoyl)-4,4a,5,6,7,8-hexahydro-1H-benzo[f]indazol-6-yl)-2-methyl-2H-1,2,3-triazole-4-sulfonamide]
≤ 100 | 50 to 75 | Cn1cc(S(=O)(=O)N(C2CC2)[C@H]2CCC3=Cc4c(cnn4-c4ccc(F)cc4)C[C@]3(C(=O)c3cc(F)ccn3)C2)nn1 [Example 265, N-cyclopropyl-N-((4aS,6S)-1-(4-fluorophenyl)-4a-(4-fluoropicolinoyl)-4,4a,5,6,7,8-hexahydro-1H-benzo[f]indazol-6-yl)-1-methyl-1H-1,2,3-triazole-4-sulfonamide]
≤ 100 | 75 to 90 | Cn1ccnc1S(=O)(=O)N(C1CC1)[C@H]1CCC2=Cc3c(cnn3-c3ccc(F)cc3)C[C@]2(C(=O)c2ncc(C(F)(F)F)s2)C1 [Example 266, N-cyclopropyl-N-((4aS,6S)-1-(4-fluorophenyl)-4a-(5 (trifluoromethyl)thiazole-2-carbonyl)-4,4a,5,6,7,8-hexahydro-1H-benzo[f]indazol-6-yl)-1-methyl-1H-imidazole-2-sulfonamide]
≤ 100 | 50 to 75 | Cn1ccc(S(=O)(=O)N(C2CC(F)(F)C2)[C@H]2CCC3=Cc4c(cnn4-c4ccc(F)cc4)C[C@]3(C(=O)c3cc(F)ccn3)C2)n1 [Example 267, N-(3,3-difluorocyclobutyl)-N-((4aS,6S)-1-(4-fluorophenyl)-4a-(4-fluoropicolinoyl)-4,4a,5,6,7,8-hexahydro-1H-benzo[f]indazol-6-yl)-1-methyl-1H-pyrazole-3-sulfonamide]
≤ 100 | 50 to 75 | Cn1cc(S(=O)(=O)N(C2CC2)[C@H]2CCC3=Cc4c(cnn4-c4ccc(F)cc4)C[C@]3(C(=O)c3cc(Cl)ccn3)C2)nn1 [Example 268, N-((4aS,6S)-4a-(4-chloropicolinoyl)-1-(4-fluorophenyl)-4,4a,5,6,7,8-hexahydro-1H-benzo[f]indazol-6-yl)-N-cyclopropyl-1-methyl-1H-1,2,3-triazole-4-sulfonamide]
≤ 100 | 75 to 90 | CC(C)N([C@H]1CCC2=Cc3c(cnn3-c3ccc(F)cc3)C[C@]2(C(=O)c2cc(Cl)ccn2)C1)S(=O)(=O)c1cnn(C)n1 [Example 269, N-((4aS,6S)-4a-(4-chloropicolinoyl)-1-(4-fluorophenyl)-4,4a,5,6,7,8-hexahydro-1H-benzo[f]indazol-6-yl)-N-isopropyl-2-methyl-2H-1,2,3-triazole-4-sulfonamide]
